Source: US20260176279A1, “DUAL RAF AND TUBULIN INHIBITORS AND METHODS OF USE THEREOF” (Deciphera Pharmaceuticals, LLC, priority 2023, published 2026)
Read-outs that look alike come from different tables or passages of the source.

Tests used:
B-Raf kinase = molecular target: T1, B-Raf kinase (Homo sapiens, UniProt P15056); assay: Biochemical Assay for B-Raf (coupled pyruvate kinase/lactate dehydrogenase assay)
T1 construct: GST (N); purchased Sigma

C-Raf kinase = molecular target: T2, C-Raf kinase (Homo sapiens, UniProt P04049, Y340D/Y341D); assay: Biochemical Assay for C-Raf (coupled pyruvate kinase/lactate dehydrogenase assay)
T2 construct: C-Raf residues 306-end; Y340D, Y341D with N-; GST (N); purchased Eurofins

MiaPaca-2 cells = assay: MiaPaca-2 Cell Proliferation Assay; type: cell-based; settings: Homo sapiens, MIA PaCa-2
Procedure: MiaPaca-2 cells (catalog #CRL-1420) are obtained from the American Type Culture Collect (ATTC, Manassas, VA). Briefly, cells were grown in DMEM supplemented with 10% characterized fetal bovine serum (Invitrogen, Carlsbad, CA), 2.5% New Zealand sourced horse serum and 1% Penicillin/Streptomycin/L-Glutamine at 37° C., 5% CO2, and 95% humidity. Cells are expanded until reaching 70-95% confluency at which point they are sub-cultured or harvested for assay use. For assays completed in 96-well plates, a serial dilution of test compound is dispensed into a 96-well black clear bottom plate in triplicate. Three thousand cells are added per well in 200 μL complete growth medium in the 96-well plate. Plates are incubated for 67 to 72 h at 37° C., 5% CO2, and 95% humidity. At the end of the incubation, 40 μL of a […] solution of resazurin (Sigma, St. Louis, MO) in PBS is added to each well of the plate and plates are incubated for an additional 5 to 6 hours at 37° C., 5% CO2, and 95% humidity. For 384-well assays, a threefold, 8-point serial dilution of compound was spotted column wise into a 384 well black, clear bottom, tissue culture treated plate using the Beckman Coulter Echo 650. Likewise, a threefold, 8-point serial dilution of cobimetinib was spotted row wise into the 384 well black, clear bottom plate containing compound. DMSO concentration was constant across all wells at 0.4%. Seven hundred fifty cells are added per well in 50 μL complete growth medium in each 384-well plate. Plates are incubated for 67 to 72 h at 37° C., 5% CO2, and 95% humidity. At the end of the incubation, 10 μL of a 440 μM solution of resazurin (Sigma, St. Louis, MO) in PBS is added to each well of the plate and plates are incubated for an additional 4 to 6 h at 37° C., 5% CO2, and 95% humidity. Plates are read on a Synergy2 or equivalent reader (Biotek, Winooski VT) using an excitation of 540 nm and an emission of 600 nm. Data is analyzed using Prism software (Graphpad, San Diego, CA) to calculate IC50 values.

HCT-116 cells = assay: HCT-116 Cell Proliferation Assay; type: cell-based; settings: Homo sapiens
Procedure: HCT-116 cells (catalog #CCL-247) are obtained from the American Type Culture Collect (ATCC, Manassas, VA). Briefly, cells are grown in McCoy's 5A supplemented with 10% characterized fetal bovine serum (Invitrogen, Carlsbad, CA) and 1% Penicillin/Streptomycin/L-Glutamine at 37° C., 5% CO2, and 95% humidity. Cells are expanded until reaching 70-95% confluency at which point they are sub-cultured or harvested for assay use. A serial dilution of test compound is dispensed into a 384-well black clear bottom plate in triplicate. 375 cells are added per well in 50 μL complete growth medium in the 384-well plate. Plates are incubated for 67 to 72 h at 37° C., 5% CO2, and 95% humidity. At the end of the incubation, 40 μL of a […] solution of resazurin (Sigma, St. Louis, MO) in PBS is added to each well of the plate and plates are incubated for an additional 4 to 5 hours at 37° C., 5% CO2, and 95% humidity. Plates are read on a Synergy2 or equivalent reader (Biotek, Winooski, VT) using an excitation of 540 nm and an emission of 600 nm. Data is analyzed using Prism software (Graphpad, San Diego, CA) to calculate IC50 values.

[1] = Table 1, inhibition of biochemical activity, read-out: BRAF
[2] = Table 1, inhibition of biochemical activity, read-out: CRAF
[3] = Table 2, inhibition of cell proliferation, read-out: MiaPaca-2
[4] = Table 2, inhibition of cell proliferation, read-out: HCT-116

T2 sequence (P04049 307-648 Y340D/Y341D): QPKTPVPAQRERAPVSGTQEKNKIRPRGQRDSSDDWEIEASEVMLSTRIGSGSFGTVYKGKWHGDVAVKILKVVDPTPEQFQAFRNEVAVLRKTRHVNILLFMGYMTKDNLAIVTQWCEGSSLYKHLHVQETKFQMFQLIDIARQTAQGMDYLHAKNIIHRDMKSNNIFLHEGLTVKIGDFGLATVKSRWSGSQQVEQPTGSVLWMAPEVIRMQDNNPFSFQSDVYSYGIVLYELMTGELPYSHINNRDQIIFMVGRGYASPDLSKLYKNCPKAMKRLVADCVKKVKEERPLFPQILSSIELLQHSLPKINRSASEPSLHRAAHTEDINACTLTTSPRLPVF
T1 sequence (P15056 416-766): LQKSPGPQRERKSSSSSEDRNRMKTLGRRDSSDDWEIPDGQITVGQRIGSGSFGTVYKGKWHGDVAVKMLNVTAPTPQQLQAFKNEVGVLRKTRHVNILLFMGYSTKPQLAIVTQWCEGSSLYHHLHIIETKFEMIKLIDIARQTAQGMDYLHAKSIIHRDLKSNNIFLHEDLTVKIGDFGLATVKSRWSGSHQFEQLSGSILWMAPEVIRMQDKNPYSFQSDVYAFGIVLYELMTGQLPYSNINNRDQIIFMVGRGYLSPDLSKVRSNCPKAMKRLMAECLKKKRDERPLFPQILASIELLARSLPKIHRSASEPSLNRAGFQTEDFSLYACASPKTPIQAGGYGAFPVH

SMILES | IC50 (B-Raf kinase; [1]) [nM] | IC50 (C-Raf kinase; [2]) [nM] | IC50 (MiaPaca-2 cells; [3]) [nM] | IC50 (HCT-116 cells; [4]) [nM] | IC50 (B-Raf kinase; Table 3, read-out: BRAF IC50) [nM] | IC50 (C-Raf kinase; Table 3, read-out: CRAF IC50) [nM] | IC50 (MiaPaca-2 cells; Table 3, read-out: MiaPaca-2 IC50) [nM] | IC50 (HCT-116 cells; HCT-116, Table 3, read-out: HCT-116 IC50) [nM]
COCC(=O)Nc1cc(-c2cc(-c3cc(NC(=O)Nc4ccc(C(F)(F)F)nc4)ccc3C)cn(C)c2=O)ccn1 [Example 3, 2-methoxy-N-(1-methyl-5-(2-methyl-5-(3-(6-(trifluoromethyl)pyridin-3-yl)ureido)phenyl)-2-oxo-1,2-dihydro-[3,4′-bipyridin]-2′-yl)acetamide] | 100 to 500 | < 100 | 100 to 500 |  |  |  |  | 
CC(=O)Nc1cc(-c2cc(-c3cc(NC(=O)Nc4ccc(C(F)(F)F)nc4)ccc3C)cc(OCCO)n2)ccn1 [Example 5] | < 100 | < 100 | < 100 |  |  |  |  | 
CC(=O)Nc1cc(-c2cc(-c3cc(NC(=O)Nc4ccc(C(F)(F)F)nc4)cnc3C)ccn2)ccn1 [Example 6] | < 100 | < 100 | 500 to 1000 | 1000 to 10000 |  |  |  | 
CC(=O)Nc1cc(-c2cc(-c3cc(NC(=O)Nc4ccc(C(F)(F)F)nc4)ccc3C)cc(=O)n2C)ccn1 [Example 7] | < 100 | < 100 | 1000 to 10000 | 1000 to 10000 |  |  |  | 
CC(=O)Nc1cc(-c2cc(-c3cc(NC(=O)Nc4ccc(C(F)(F)F)nc4)ccc3C)nn(C)c2=O)ccn1 [Example 8] | 1000 to 10000 | 1000 to 10000 | 1000 to 10000 | 1000 to 10000 |  |  |  | 
Cc1ccc(NC(=O)Nc2ccc(C(F)(F)F)nc2)cc1-c1cc(-c2ccnc(NC(=O)CN(C)C)c2)c(=O)n(C)c1 [Example 11] | 100 to 500 | 100 to 500 | 500 to 1000 | 500 to 1000 |  |  |  | 
CC(=O)Nc1cc(-c2cncc(-c3cc(NC(=O)Nc4ccc(C(F)(F)F)nc4)ccc3C)n2)ccn1 [Example 12] | < 100 | < 100 | 100 to 500 | 100 to 500 |  |  |  | 
COCC(=O)Nc1cc(-c2cncc(-c3cc(NC(=O)Nc4ccc(C(F)(F)F)nc4)ccc3C)n2)ccn1 [Example 13] | < 100 | < 100 | 500 to 1000 | 500 to 1000 |  |  |  | 
Cc1ccc(NC(=O)Nc2ccc(C(F)(F)F)nc2)cc1-c1cncc(-c2ccnc(NC(=O)CC#N)c2)n1 [Example 14] | < 100 | < 100 | 1000 to 10000 | 1000 to 10000 |  |  |  | 
Cc1ccc(NC(=O)Nc2ccc(C(F)(F)F)nc2)cc1-c1cncc(-c2cc(NC(=O)C3CC3)ncn2)c1 [Example 15] | < 100 | < 100 | 500 to 1000 |  |  |  |  | 
Cc1ccc(NC(=O)Nc2ccc(C(F)(F)F)nc2)cc1-c1cncc(-c2cc(N)ncn2)c1 [Example 16] | < 100 | < 100 | 100 to 500 |  |  |  |  | 
CNC(=O)c1cc(-c2cncc(-c3cc(NC(=O)Nc4ccc(C(F)(F)F)nc4)ccc3C)c2)ncn1 [Example 21] | < 100 | < 100 | 100 to 500 |  |  |  |  | 
Cc1ccc(NC(=O)Nc2ccc(C)c(-c3cc(OCCO)nc(N4CCOCC4)c3)c2)cn1 [Example 23, 1-(3-(2-(2-hydroxyethoxy)-6-morpholinopyridin-4-yl)-4-methylphenyl)-3-(6-methylpyridin-3-yl)urea] | 100 to 500 | < 100 | < 100 |  |  |  |  | 
Cc1ccc(NC(=O)Nc2cnc(C(F)(F)F)nc2)cc1-c1cc(OCCO)nc(N2CCOCC2)c1 [Example 24, 1-(3-(2-(2-hydroxyethoxy)-6-morpholinopyridin-4-yl)-4-methylphenyl)-3-(2-(trifluoromethyl)pyrimidin-5-yl)urea] | 100 to 500 | < 100 | < 100 |  | 100 to 500 | 100 to 500 | < 100 | < 100
Cc1ccc(NC(=O)Nc2ccc(C(F)(F)F)nc2)cc1-c1cc(OC2CCNCC2)nc(N2CCOCC2)c1 [Example 25, 1-(4-methyl-3-(2-morpholino-6-(piperidin-4-yloxy)pyridin-4-yl)phenyl)-3-(6-(trifluoromethyl)pyridin-3-yl)urea] | 100 to 500 | < 100 | 100 to 500 | 500 to 1000 |  |  |  | 
Cc1ncc(NC(=O)Nc2ccc(C(F)(F)F)nc2)cc1-c1cc(OCCO)nc(N2CCOCC2)c1 [Example 26] | 1000 to 10000 | < 100 | < 100 |  |  |  |  | 
Cc1cc(F)c(NC(=O)Nc2ccc(C(F)(F)F)nc2)cc1-c1cc(OCCN(C)C)nc(N2CCOCC2)c1 [Example 27] | 500 to 1000 | 100 to 500 | 1000 to 10000 |  |  |  |  | 
Cc1ccc(NC(=O)Nc2cccnc2)cc1-c1cc(OCCO)nc(N2CCOCC2)c1 [Example 28] | 500 to 1000 | < 100 | 100 to 500 | 1000 to 10000 |  |  |  | 
Cc1ccc(NC(=O)Nc2ccc(C(F)(F)F)nc2)cc1-c1cc(-c2cnn(C)c2)nc(N2CCOCC2)c1 [Example 29] | < 100 | < 100 | < 100 |  |  |  |  | 
Cc1ccc(NC(=O)Nc2ccc(C(F)(F)F)nc2)cc1-c1cc(OCCN(C)C)nc(N2CCOCC2)c1 [Example 30] | 100 to 500 | < 100 | < 100 |  |  |  |  | 
Cc1ccc(NC(=O)Nc2ccc(C(F)(F)F)nc2)cc1-c1cc(N2CCOCC2)nc(N2CCN(C)CC2)c1 [Example 31] | 500 to 1000 | 100 to 500 | 100 to 500 |  |  |  |  | 
Cc1ccc(NC(=O)Nc2ccc(C(F)(F)F)nc2)cc1-c1cc(N2CCOCC2)nc(N2CCOCC2)c1 [Example 32] | < 100 | < 100 | < 100 |  |  |  |  | 
Cc1ccc(NC(=O)Nc2ccc(C(F)(F)F)nc2)cc1-c1cc(OCC2COC2)nc(N2CCOCC2)c1 [Example 33] | 100 to 500 | < 100 | < 100 |  |  |  |  | 
Cc1ccc(NC(=O)Nc2ccc(C(F)(F)F)nc2)cc1-c1cc(F)nc(N2CCOCC2)c1 [Example 35] | 1000 to 10000 | 1000 to 10000 |  |  |  |  |  | 
Cc1ccc(NC(=O)Nc2ccc(C(F)(F)F)nc2)cc1-c1cc(OCCO)nc(N2CCOCC2)c1 [Example 37] | 100 to 500 | < 100 | < 100 | < 100 |  |  |  | 
Cc1ccc(NC(=O)Nc2ccc(C(F)F)nc2)cc1-c1cc(OCCO)nc(N2CCOCC2)c1 [Example 38] |  |  | < 100 |  |  |  |  | 
Cc1ccc(NC(=O)Nc2ccc(C(F)(F)F)nc2)cc1-c1cc(OCCO)nc(-c2cn[nH]c2)c1 [Example 42] | < 100 | < 100 | < 100 |  |  |  |  | 
